In article PMC10120512, “Benzenesulfonamide derivatives as Vibrio cholerae carbonic anhydrases inhibitors: a computational-aided insight in the structural rigidity-activity relationships” (Journal of Enzyme Inhibition and Medicinal Chemistry, 2023):

Legend:
VchβCA = VchβCA (Vibrio cholerae, UniProt A0A086SLX8); experiment: biochemical
VchαCA [1] = biological target: VchαCA (Vibrio cholerae, UniProt Q9KMP6); experiment: biochemical; type: biochemical
VchαCA [2] = experiment: biochemical; type: biochemical; conditions: for SI [ KI hCA I/KI VchαCA ]: selectivity index hCA I over VchαCA; for SI [ KI hCA II/KI VchαCA ]: selectivity index hCA II over VchαCA
VchγCA = VchγCA (Vibrio cholerae, UniProt Q9KVT1); experiment: biochemical
[3] = system: clinical isolates of V. cholerae (SI-Vc22, SI-Vc71, SI-Vc912); experiment: Direct antibacterial activity, agar diffusion method; type: cell-based; conditions: for inhibition zone diameter: all the isolates, data not shown; for growth inhibition against at least one of the clinical isolates: 2 μL spot, 37 °C, 24 h; for all read-outs here: test concentration or dose not given here

VchβCA, sequence (A0A086SLX8 entry or part of it): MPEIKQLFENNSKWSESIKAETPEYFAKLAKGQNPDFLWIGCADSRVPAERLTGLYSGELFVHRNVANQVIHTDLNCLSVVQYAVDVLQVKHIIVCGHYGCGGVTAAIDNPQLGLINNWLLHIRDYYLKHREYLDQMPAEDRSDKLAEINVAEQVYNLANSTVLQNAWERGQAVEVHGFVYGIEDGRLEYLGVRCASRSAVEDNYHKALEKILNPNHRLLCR
VchγCA, sequence (Q9KVT1 1-184): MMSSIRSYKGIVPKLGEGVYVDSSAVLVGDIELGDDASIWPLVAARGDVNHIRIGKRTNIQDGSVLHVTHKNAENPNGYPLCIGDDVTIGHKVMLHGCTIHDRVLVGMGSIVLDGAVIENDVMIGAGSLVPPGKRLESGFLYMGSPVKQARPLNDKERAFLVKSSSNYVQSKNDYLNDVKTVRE
VchαCA (Vibrio cholerae, UniProt Q9KMP6), sequence (Q9KMP6 entry or part of it): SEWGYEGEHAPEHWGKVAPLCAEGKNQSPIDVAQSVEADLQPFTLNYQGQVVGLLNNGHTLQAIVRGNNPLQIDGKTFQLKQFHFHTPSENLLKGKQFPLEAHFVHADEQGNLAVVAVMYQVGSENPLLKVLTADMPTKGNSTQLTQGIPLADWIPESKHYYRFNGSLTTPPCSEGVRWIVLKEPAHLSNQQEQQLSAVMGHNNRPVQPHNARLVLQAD

| SMILES | Ki (VchβCA) | Ki (VchαCA [1]) | SI [ KI hCA I/KI VchαCA ] (VchαCA [2]) | SI [ KI hCA II/KI VchαCA ] (VchαCA [2]) | Ki (VchγCA) | inhibition zone diameter [3] | growth inhibition against at least one of the clinical isolates [3] |
| --- | --- | --- | --- | --- | --- | --- | --- |
| NS(=O)(=O)c1ccc(NCCNc2ccccc2)cc1 [1a] | 18.3 µM | 0.0781 µM | 0.3 | 0.1 |  |  |  |
| NS(=O)(=O)c1ccc(NC(=O)CNc2ccccc2)cc1 [1b] | 17.7 µM | 0.053 µM | 1.2 | 0.1 | 49.4 µM |  |  |
| NS(=O)(=O)c1ccc(N2CCN(c3ccccc3)C2=O)cc1 [1c] | 134 µM | 0.0071 µM | 7.7 | 0.6 | 5 µM |  |  |
| Cc1ccc(NCCNc2ccc(S(N)(=O)=O)cc2)cc1 [2a] | 16.8 µM | 0.0431 µM | 0.2 | 0.1 | 39.9 µM |  |  |
| Cc1ccc(NCC(=O)Nc2ccc(S(N)(=O)=O)cc2)cc1 [2b] | 97 µM | 0.0431 µM | 0.2 | 1.9 | 82.6 µM |  |  |
| Cc1ccc(N2CCN(c3ccc(S(N)(=O)=O)cc3)C2=O)cc1 [2c] | 83.6 µM | 0.027 µM | 0.60 | 0.14 | 3.5 µM |  |  |
| NS(=O)(=O)c1ccc(NCCNc2ccc(Cl)cc2)cc1 [3a] | 53.8 µM | 0.0274 µM | 1.4 | 1.7 |  |  |  |
| NS(=O)(=O)c1ccc(N2CCN(c3ccc(Cl)cc3)C2=O)cc1 [3c] | 106 µM | 0.047 µM | 4.1 | 1.0 | 50.2 µM |  |  |
| NS(=O)(=O)c1ccc(NCCNc2ccc(I)cc2)cc1 [4a] | 136 µM | 0.065 µM | 12.1 | 9.9 |  |  |  |
| NS(=O)(=O)c1ccc(NC(=O)CNc2ccc(I)cc2)cc1 [4b] | 157 µM | 0.0228 µM |  |  | 72.5 µM |  |  |
| NS(=O)(=O)c1ccc(NCCNc2ccccc2Br)cc1 [5a] | 89.2 µM | 0.0641 µM | 14.7 | 14.2 |  |  |  |
| NS(=O)(=O)c1ccc(NC(=O)CNc2ccccc2Br)cc1 [5b] | 47.4 µM | 0.062 µM |  |  | 87.7 µM |  |  |
| NS(=O)(=O)c1ccc(N2CCN(c3ccccc3Br)C2=O)cc1 [5c] |  | 0.0472 µM | 0.1 | 0.1 | 73.2 µM |  |  |
| NS(=O)(=O)c1ccc(NCCNc2ccccc2F)cc1 [6a] | 101 µM | 0.0362 µM | 2.1 | 0.2 | 73.7 µM |  |  |
| NS(=O)(=O)c1ccc(NC(=O)CNc2ccccc2F)cc1 [6b] | 51.4 µM | 0.079 µM | 0.2 | 0.1 | 93.1 µM |  |  |
| Cc1cccc(NCCNc2ccc(S(N)(=O)=O)cc2)n1 [7a] | 19 µM | 0.037 µM | 2.4 | 0.9 | 69.8 µM |  |  |
| Cc1cccc(NCC(=O)Nc2ccc(S(N)(=O)=O)cc2)n1 [7b] | 73.1 µM | 0.017 µM | 0.9 | 0.3 | 59.8 µM |  |  |
| Cc1cccc(N2CCN(c3ccc(S(N)(=O)=O)cc3)C2=O)n1 [7c] | 122 µM | 0.011 µM | 5.0 | 0.7 | 80.2 µM |  |  |
| NS(=O)(=O)c1ccc(NCCNCc2ccccc2)cc1 [8a] | 12.4 µM | 0.023 µM | 7.4 | 1.4 | 52.7 µM |  |  |
| NS(=O)(=O)c1ccc(NC(=O)CNCc2ccccc2)cc1 [8b] | 53.2 µM | 0.0614 µM |  |  |  |  |  |

| SMILES | Ki (VchβCA) | Ki (VchαCA [1]) | SI [ KI hCA I/KI VchαCA ] (VchαCA [2]) | SI [ KI hCA II/KI VchαCA ] (VchαCA [2]) | Ki (VchγCA) | inhibition zone diameter [3] | growth inhibition against at least one of the clinical isolates [3] |
| --- | --- | --- | --- | --- | --- | --- | --- |
| NS(=O)(=O)c1ccc(N2CCN(Cc3ccccc3)C2=O)cc1 [8c] | 127 µM | 0.0026 µM | 3.1 | 1.2 | 8.1 µM |  |  |
| CCCCNCCNc1ccc(S(N)(=O)=O)cc1 [9a] | 115 µM | 0.0788 µM | 6.8 | 1.0 |  | 3–5 mm |  |
| CCCCNCC(=O)Nc1ccc(S(N)(=O)=O)cc1 [9b] | 141 µM | 0.0786 µM |  |  |  |  | moderate growth inhibition |
| CC(C)NCCNc1ccc(S(N)(=O)=O)cc1 [10a] | 12.5 µM | 0.0075 µM | 119.5 | 45.0 | 92.9 µM |  |  |
| CC(C)NCC(=O)Nc1ccc(S(N)(=O)=O)cc1 [10b] | 4 µM | 0.0362 µM | 2.5 | 0.7 | 58.3 µM |  |  |
| CC(C)N1CCN(c2ccc(S(N)(=O)=O)cc2)C1=O [10c] | 113 µM | 0.0098 µM | 0.9 | 0.3 | 64.5 µM |  |  |
| NS(=O)(=O)c1cccc(NCCNc2ccccc2)c1 [11a] | 15.6 µM | 0.063 µM | 0.1 | 0.1 |  | 3–5 mm | moderate growth inhibition |
| NS(=O)(=O)c1cccc(N2CCN(c3ccccc3)C2=O)c1 [11c] | 100 µM | 0.0503 µM | 1.2 | 0.6 | 6.5 µM |  |  |
| Cc1ccc(NCCNc2cccc(S(N)(=O)=O)c2)cc1 [12a] | 173 µM | 0.0441 µM |  |  | 79 µM |  |  |
| Cc1ccc(NCC(=O)Nc2cccc(S(N)(=O)=O)c2)cc1 [12b] | 121 µM | 0.0731 µM | 1.2 | 0.1 | 9.6 µM |  |  |
| Cc1ccc(N2CCN(c3cccc(S(N)(=O)=O)c3)C2=O)cc1 [12c] |  | 0.011 µM |  |  | 76 µM |  |  |
| NS(=O)(=O)c1cccc(NC(=O)CNc2ccc(Cl)cc2)c1 [13b] | 70.4 µM | 0.0755 µM | 3.6 | 0.4 |  |  |  |
| NS(=O)(=O)c1cccc(N2CCN(c3ccc(Cl)cc3)C2=O)c1 [13c] | 122 µM | 0.004 µM | 7.6 | 21.0 | 73.7 µM |  |  |
| NS(=O)(=O)c1cccc(NCCNc2ccccc2Br)c1 [14a] | 97 µM | 0.0635 µM | 0.1 | 0.1 |  |  |  |
| NS(=O)(=O)c1cccc(NC(=O)CNc2ccccc2Br)c1 [14b] | 16 µM | 0.0723 µM | 0.3 |  | 72.4 µM |  |  |
| NS(=O)(=O)c1cccc(N2CCN(c3ccccc3Br)C2=O)c1 [14c] | 132 µM | 0.01 µM | 0.8 | 5.4 | 81.3 µM |  |  |
| CCCCNCCNc1cccc(S(N)(=O)=O)c1 [15a] | 56.5 µM | 0.0803 µM | 1.9 | 0.5 | 69.3 µM |  |  |
| CCCCNCC(=O)Nc1cccc(S(N)(=O)=O)c1 [15b] | 116 µM | 0.0664 µM | 1.3 | 0.6 | 73.6 µM |  |  |
| CCCCN1CCN(c2cccc(S(N)(=O)=O)c2)C1=O [15c] | 122 µM | 0.047 µM | 0.8 | 0.2 | 8 µM |  |  |
